Tests used:
Histone deacetylase 2 = Histone deacetylase 2 (Homo sapiens, UniProt Q92769); assay: Inhibition of human recombinant HDAC2 pre-incubated for 30 mins before substrate addition and measured after 30 mins by fluorescence based assay
Histone deacetylase 1 = Histone deacetylase 1 (Homo sapiens, UniProt Q13547); assay: Inhibition of human recombinant HDAC1 pre-incubated for 30 mins before substrate addition and measured after 30 mins by fluorescence based assay
[1] = biological target: Class 1 histone deacetylase (Homo sapiens, UniProt Q13547+O15379+Q92769+Q9BY41); assay: Inhibition Class 1 histone deacetylase in human HeLa nuclear extracts using Fluor-de- Lys-green substrate by fluorescence assay; type: cell-free

Chain of Histone deacetylase 1 (Q13547 whole entry): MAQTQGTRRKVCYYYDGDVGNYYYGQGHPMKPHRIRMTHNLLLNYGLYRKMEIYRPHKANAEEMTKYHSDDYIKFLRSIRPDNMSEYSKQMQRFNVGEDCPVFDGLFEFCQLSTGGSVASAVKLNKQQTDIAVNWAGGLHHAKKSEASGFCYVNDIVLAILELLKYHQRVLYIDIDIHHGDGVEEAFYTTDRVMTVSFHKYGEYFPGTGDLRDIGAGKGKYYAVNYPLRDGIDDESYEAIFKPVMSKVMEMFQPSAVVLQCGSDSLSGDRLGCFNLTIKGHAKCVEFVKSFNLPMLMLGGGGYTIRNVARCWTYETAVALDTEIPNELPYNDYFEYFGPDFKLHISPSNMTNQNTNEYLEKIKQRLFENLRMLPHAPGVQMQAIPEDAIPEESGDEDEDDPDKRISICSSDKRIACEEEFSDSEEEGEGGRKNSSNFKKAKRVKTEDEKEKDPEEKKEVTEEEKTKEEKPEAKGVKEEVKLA
Chain of Histone deacetylase 2 (Q92769 whole entry): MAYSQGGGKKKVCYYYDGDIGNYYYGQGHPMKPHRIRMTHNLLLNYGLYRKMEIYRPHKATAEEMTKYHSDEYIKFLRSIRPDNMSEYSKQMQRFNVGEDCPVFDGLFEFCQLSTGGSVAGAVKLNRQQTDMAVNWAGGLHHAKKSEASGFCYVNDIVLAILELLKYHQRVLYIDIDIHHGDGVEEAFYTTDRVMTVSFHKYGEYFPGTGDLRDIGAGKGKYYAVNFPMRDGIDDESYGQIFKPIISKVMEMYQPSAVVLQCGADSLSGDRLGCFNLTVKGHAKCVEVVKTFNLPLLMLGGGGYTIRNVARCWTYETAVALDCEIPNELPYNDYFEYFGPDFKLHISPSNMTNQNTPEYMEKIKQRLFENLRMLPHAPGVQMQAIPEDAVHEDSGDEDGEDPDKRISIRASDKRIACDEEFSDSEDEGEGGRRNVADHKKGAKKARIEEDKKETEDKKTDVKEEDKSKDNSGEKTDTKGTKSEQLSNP

SMILES	IC50 (Histone deacetylase 2)	IC50 (Histone deacetylase 1)	IC50 [1]
COc1ccccc1CNCc1ccc(/C=C/C(=O)NO)cc1	1490 nM	610 nM	278 nM
COc1ccc(CNCc2ccc(/C=C/C(=O)NO)cc2)cc1OC	1890 nM	1260 nM	371 nM
COc1ccc(CNCc2ccc(/C=C/C(=O)NO)cc2)cc1	926 nM	381 nM	195 nM
COc1cc(CNCc2ccc(/C=C/C(=O)NO)cc2)cc(OC)c1	1270 nM	837 nM	415 nM
COc1cccc(CNCc2ccc(/C=C/C(=O)NO)cc2)c1	819 nM	463 nM	420 nM

Second part, the compound after the results:

IC50 (Histone deacetylase 2)	IC50 (Histone deacetylase 1)	IC50 [1]	SMILES
1750 nM	620 nM	292 nM	COc1ccc(OC)c(CNCc2ccc(/C=C/C(=O)NO)cc2)c1
1080 nM	636 nM	235 nM	COc1cccc(OC)c1CNCc1ccc(/C=C/C(=O)NO)cc1
950 nM	602 nM	296 nM	COc1cccc(CNCc2ccc(/C=C/C(=O)NO)cc2)c1OC
994 nM	449 nM	258 nM	COc1ccc(CNCc2ccc(/C=C/C(=O)NO)cc2)c(OC)c1
		370 nM	O=C(/C=C/c1ccc(CNCc2ccccc2)cc1)NO

Reference: ChEMBL document CHEMBL4385666, “Exploring hydroxamic acid inhibitors of HDAC1 and HDAC2 using small molecule tools and molecular or homology modelling” (Bioorg Med Chem Lett, 2019)
